Values joined by “and” are separate entries in the source; they are usually repeats but may differ in a detail not shown here. Equal entries are not always repeated.
How the values were obtained:
[1] = tested on: UUO model of kidney fibrosis; assay: Unilateral ureteral obstruction (UUO) model of kidney fibrosis: kidney collagen 1A1 and collagen 3A1 expression by real-time PCR; format: in vivo, mice; conditions: UUO
Protocol: Unilateral ureteral obstruction (UUO) is a well-established experimental model of renal injury leading to interstitial fibrosis, and thus is used as an experimental model that is reflective of human kidney disease. UUO is induced by surgically ligating a single ureter. As fibrosis is characterized by an increase in collagen, the presence and extent of kidney fibrosis may be determined by measuring collagen content. Both collagen 1A1 (Col 1A1) and collagen 3A1 (Col 3A1) are measured to assess collagen content. Kidney fibrosis may be visualized by staining tissue samples with picro-sirius red to detect increases in collagen content. Kidney fibrosis may also be observed by measuring the amount of hydroxyproline, which is a major component of collagen, in a sample.
The cEt-containing anti-miR-21 compounds found to be active in the luciferase assay were tested in the UUO model of kidney fibrosis. 25919 comprising 2′-MOE and 2′-fluoro modifications is known to inhibit miR-21 activity in vivo and was included as a positive control. Groups of 8 animals each were treated as follows: UUO only, UUO with PBS, or UUO with anti-miR-21 compound. Relative to the day of the UUO procedure, PBS or anti-miR-21 compound was administered at days −3, −1, and +5. Anti-miR-21 compounds were administered at a dose of 20 mg/kg. As the anti-miR compounds were administered prior to the UUO procedure, this dosing regimen is considered a prophylactic treatment. At day 11, animals were sacrificed and kidney was isolated for measurement of collagen expression. Collagen expression was measured by real-time PCR and normalized first to GAPDH and then to the sham control animals.
The UUO study was repeated to confirm the activity of 25070. The anti-miR was administered subcutaneously at a dose of 20 mg/kg.
(§1) Control treatment groups included UUO only (sham) and UUO with PBS administered subcutaneously. An additional control group included UUO with Tween-MC/20 carrier perorally. 25070 administered subcutaneously at dose of 20 mg/kg at 5 days prior to, 2 days prior to, and 3 days after, the UUO procedure. Irbesartan was administered perorally on daily on days 0 through 7 following the UUO procedure. Animals were sacrificed on Day 10 following the UUO procedure. Kidney tissue was collected for measurement of collagen 1A1 and collagen 3A1 expression.
Compounds 25220 and 25221, as well as 25923, were tested in the UUO model for their effects on fibrosis. Groups of 8 animals each were treated as follows: sham surgery, UUO with PBS, UUO with 25220, UUO with 25221, or UUO with 25923. Relative to the day of the UUO procedure, PBS or anti-miR-21 compound was administered at days −5, −3, and +3. Anti-miR-21 compounds were administered at a dose of 20 mg/kg. As the anti-miR compounds were administered prior to the UUO procedure, this dosing regimen is considered a prophylactic treatment. At day 10, animals were sacrificed and kidney was isolated for measurement of collagen expression. Collagen expression was measured by real-time PCR and normalized to GAPDH.

[2] = tested on: UUO model of kidney fibrosis; assay: UUO model: collagen area fraction of kidney tissue (picrosirius red histology); format: in vivo, mice; conditions: Table N, 25070 20 mg/kg s.c.
Protocol: as §1
The ‘collagen area fraction’ is measured histologically through quantitative image processing of the area of kidney tissue that is stained red by the picrosirius red stain; the percent detected as red is normalized by the area of kidney section.

miR-21 = miR-21 luciferase sensor assay in Hela cells; format: cell-based
Protocol: The compounds were assessed for miR-21 inhibitory activity in a luciferase assay. A microRNA luciferase sensor construct was engineered using pGL3-MCS2 (Promega). The construct was introduced into Hela cells to test the ability of anti-miR compounds to inhibit activity of miR-21. In this assay, miR-21 present in the Hela cells binds to its cognate site(s) in the luciferase sensor construct, and suppresses luciferase expression. When the appropriate anti-miR is introduced into the cells, it binds to miR-21 and relieves suppression of luciferase expression. Thus, in this assay anti-miRs that are effective inhibitors of miR-21 expression will cause an increase in luciferase expression.
Hela cells (ATCC), stably transfected with a luciferase construct engineered to contain a sequence complementary of miR-21, were seeded in T-170 flasks (BD Falcon) at 3.5*10^6 cells/flask. Hela cells were grown in Dulbecco's Modified Eagle Medium with High Glucose (Invitrogen).
Each flask of Hela cells was transfected with 0.5 ug of a phRL sensor plasmid (Promega) expressing Renilla to be used in normalization. Hela cells were transfected using 20 ul Lipofectamine 2000/flask (Invitrogen). After 4 hours of transfection, cells were washed with PBS and trypsinized Hela cells were plated at 40 k/well in 24 well plates (BD Falcon) and left overnight.
Hela cells were transfected with anti-miRs using Lipofectin (Invitrogen) at 2.5 ul Lipofectin/100 nM ASO/ml Opti-MEM I Reduced Serum Medium (Invitrogen) for 4 hours. After ASO transfection, Hela cells were refed with Dulbecco's Modified Eagle Medium with High Glucose (Invitrogen).
Hela cells are passively lysed and luciferase activity measured using the Dual-Luciferase Reporter Assay System (Promega).
The luciferase assay was performed to test the ability of anti-miRs with the nucleoside patterns described herein to inhibit the activity of miR-21. Results were compared to a ‘mock’ treatment, in which cells received no anti-miR treatment. The experiment was repeated and results of two experimental replicates are shown in the following Table B, as the luciferase value normalized to beta-galactosidase activity.
The luciferase assay was performed as described herein to test the ability of anti-miRs in Table F to inhibit the activity of miR-21. Results were compared to a ‘mock’ treatment, in which cells received no anti-miR treatment. The experiment was repeated and results of two experimental replicates are shown in the following Table D, as fold change in luciferase value relative to the mock treatment.

[3] = tested on: ischemia reperfusion injury/nephrectomy (IR/Nx) model; assay: Ischemia reperfusion injury/nephrectomy (IR/Nx) model: urinary albumin to creatinine ratio; format: in vivo, mouse
Description: An ischemia reperfusion injury/nephrectomy (IR/Nx) model is created in the mouse through temporary unilateral clamping of an artery in one kidney, which leads to tubule damage, inflammation, and fibrosis, followed by removal of the second kidney at a later timepoint. In this model, the acute kidney dysfunction phase is useful to test candidate agents for the treatment of acute kidney injury (i.e. up to about the first 5 days), and the later phases of kidney dysfunction are useful to model chronic fibrosis (i.e. after about the first 5 days).
Unilateral IR was induced for a period of 30 minutes. Treatment groups were as follows: sham IR procedure; IR with PBS administered subcutaneously; IR with mismatched control 25109 administered subcutaneously at a dose of 20 mg/kg; IR with anti-miR-21 compound 25070 administered subcutaneously at a dose of 20 mg/kg; and IR with anti-miR-21 compound 25923 administered subcutaneously at a dose of 20 mg/kg. PBS or anti-miR was administered on days 2, 3, 4, and 8 following IR. On day 8, the healthy kidney was removed by nephrectomy from each animal, and animals were sacrificed on day 9. Just prior to sacrifice, urine was collected by direct bladder puncture.
Urinary albumin to creatinine ratio was measured in the urine from each mouse. […] The geometric mean of the albumin to creatinine ratio in each group of mice was 16 μgAlb/mgCr (nephrectomy-only control), 127 μgAlb/mgCr (IR/Nx, PBS control), 140 μgAlb/mgCr (IR/Nx, 25109 control), 40 μgAlb/mgCr (IR/Nx, 25070), and 31 μgAlb/mgCr (IR/Nx, 25923). Blood urea nitrogen and serum creatinine levels were similar across all IR/Nx mice, and were elevated relative to nephrectomy-only control mice (data not shown).

[4] = Table M, individual animals, 25070 20 mg/kg s.c. 5 and 2 days prior to and 3 days after UUO, irbesartan PO daily days 0-7, sacrifice Day 10, 20 mg/kg
[5] = 20 mg/kg at days -5, -3, +3, kidney at day 10

Compound | Collagen 3A1 (Normalized Expression) Mean ([1]; Table M, group mean, 25070 20 mg/kg s.c., irbesartan PO daily days 0-7, Day 10, UUO-PBS 93.2, Tween/MC vehicle 132.4) | Collagen 1A1 (Normalized Expression) Mean ([1]; Table M, group mean, 25070 20 mg/kg s.c., irbesartan PO daily days 0-7, Day 10, UUO-PBS 129.6, Tween/MC vehicle 150.2) | Collagen 1A1 (Normalized Expression) [1, 4] | Collagen 3A1 (Normalized Expression) [1, 4] | reduction in Col3a1 expression (significance) ([1]; comparison with irbesartan, sacrifice Day 10) | reduction in Col1A1 expression relative to saline-treated animals (significance) ([1]; comparison with irbesartan, sacrifice Day 10, p<0.05 by one-way ANOVA) | Collagen Area Fraction (%) Mean ([2]; group mean, irbesartan PO, Day 10, UUO-PBS 11.1, Tween/MC vehicle 8.0) | Collagen Area Fraction (%) ([2]; individual animals, irbesartan PO daily days 0-7, Day 10, picrosirius red, 20 mg/kg) | inhibition of miR-21 activity in the luciferase assay (in words) (miR-21; Hela cells) | fold change in luciferase value relative to the mock treatment (miR-21; concentration of anti-miR compound 0.2 (unit not given)) | fold change in luciferase value relative to the mock treatment (miR-21; concentration of anti-miR compound 0.6 (unit not given)) | fold change in luciferase value relative to the mock treatment (miR-21; concentration of anti-miR compound 1.9 (unit not given)) | fold change in luciferase value relative to the mock treatment (miR-21; concentration of anti-miR compound 5.6 (unit not given)) | fold change in luciferase value relative to the mock treatment (miR-21; concentration of anti-miR compound 16.7 (unit not given)) | fold change in luciferase value relative to the mock treatment (miR-21; concentration of anti-miR compound 50.0 (unit not given)) | collagen 1A1 expression (FIG. 2A, in words) [1, 5] | collagen 3A1 expression (FIG. 2B, in words) [1, 5] | reduction in urinary albumin to creatinine ratio (significance) ([3]; 20 mg/kg subcutaneously on days 2, 3, 4, and 8) | geometric mean of the urinary albumin to creatinine ratio ([3]; 20 mg/kg subcutaneously on days 2, 3, 4, and 8, urine on day 9)
CCCCC1=NC2(CCCC2)C(=O)N1Cc1ccc(-c2ccccc2-c2nnn[nH]2)cc1 [irbesartan, reference compound] | 73.2 | 117.8 | 125.4 and 86.7 and 106.6 and 110.7 and 198.3 and 92.2 and 118.1 and 104.1 | 65.5 and 63.8 and 63.2 and 50.8 and 63.6 and 82.8 and 122.5 | statistically significant reductions | did not yield a statistically significant reduction | 8.0% | 6.105% and 7.481% and 15.877% and 7.914% and 6.614% and 5.706% and 7.798% and 6.154% |  |  |  |  |  |  |  |  |  |  | 
AECSATCSAGTCSTGAUSAAGCSTAS (antisense ACATCAGTCTGATAAGCTA; cEt and 2'-MOE nucleosides, code letters not given here, further chemistry not given here) [Compound 25923, variation of 25070: 3′-terminal nucleoside is a cEt nucleoside rather than 2′-MOE nucleoside] |  |  |  |  |  |  |  |  | inhibition of miR-21 in a dose-dependent manner | 1.06 fold change | 1.01 fold change | 1.10 fold change | 5.18 fold change | 11.34 fold change | 10.81 fold change | reduced collagen 1A1 and collagen 3A1 expression by a stastically significant amount | reduced collagen 1A1 and collagen 3A1 expression by a stastically significant amount | statistically significant reductions | 31 μgAlb/mgCr
